d = 2'-deoxy (DNA); m = 2'-O-methyl
What was measured:
[1] = tested on: HIV-1 IIB; assay: CPE-based inhibition of acute infection of MT-4 cells (MTT); type: cell-based
Protocol: CPE based infection experiments were performed using MT-4 cells (Pauwels et al. (1988) J. Virol. Meth. 20:309; Papp et al. (1997) AIDS Research and Human Retroviruses In Press). MT-4 cells were obtained from the AIDS Research and Reference Reagent Bank, Division of AIDS, NIAID, NIH contributed Dr. Richman (Pauwels et al. (1988) J. Virol. Meth. 20:309) T-lymphoid H9 (HUT-78) cells were obtained from Dr. Robert Gallo, National Cancer Institute, Bethesda, Md. (Popovic et al. (1984) Science 224:497; Gazdar et al. (1980) Blood 55:409). Cell cultures were maintained in RPMI 1640 medium (GIBCO Laboratories, Grand Island, N.Y.) supplemented with 20% (H9 cells), or 10% (MT-4 cells) heat-inactivated fetal bovine serum (Sigma Chemical Co., St. Louis, Mo.) 250 units/ml penicillin, 250 μg/ml streptomycin, 2 mM 1-glutamine, and 10 mM HEPES (N-2-hydroxyethylpiperazine-N′-2-ethanesulfonic acid) buffer (complete medium) at 37° C. in 5% CO2. HIV-1 IIB was originally obtained from Dr. Robert Gallo, National Cancer Institute (Popovic (1984) Science 224:497). Virus stocks of HIV-1 were prepared from cell-free filtered supernatant of chronically infected H9 cultures by the shaking method as previously described by Vujoie et al. (J. Infectious Diseases (1988) 157:1047).
Experiments were performed under two sets of conditions. […] The cultures were incubated for 6 days and CPE measured using the MTT dye method. […]

[2] = tested on: HIV-2 (ROD); assay: XTT-based anti-HIV assay, HIV-2; type: cell-based
Description: (§1) The initial experiment performed involved evaluation of Oligos 12, 32, and 41 against three laboratory strains of HIV-1 (IIIB, RF and SK1) and one strain of HIV-2 (ROD) in parallel with the positive control compound ddC in the XTT-based anti-HIV assay. All these oligonucleotides are active against both HIV-1 and HIV-2.
(§2) CEM-SS sells (AIDS Research and Reference Reagent Program, NIH) or other established human T cell lines used in these experiments were passaged in T-150 flasks for use in the assay. On the day preceding the assay, the cells were split 1:2 to assure they would be in an exponential growth phase at time of infection. On the day of assay the cells were washed twice with tissue culture medium and resuspended in fresh tissue cultures medium. Total cell and viability counting was performed using a hemacytometer and trypan blue dye exclusion. Cell viability was greater than 95% for the cells to be utilized in the assay. The cells were pelleted and resuspended at 2.5×10^4 cells per ml in tissue culture medium. Cells were added to the drug-containing plates in a volume of 50 μl.
(§3) A pretitered aliquot of virus was removed from the freezer −80° C.) and allowed to thaw slowly to room temperature in a biological safety cabinet. The virus was resuspended and diluted into tissue culture medium such that the amount of virus added to each well in a volume of 50 μl will be the amount determined to give complete cell killing at 6 days post-infection. In general the virus pools produced with the IIIB isolate of HIV required the addition of 5 μl of virus per well.
Each plate contained cell control wells (cells only), virus control wells (cells plus virus), drug toxicity control wells (cells plus drug only), drug colorimetric control wells (drug only) as well as experimental wells (drug plus cells plus virus).
After 6 days of incubation at 37° C. in a 5% CO2 incubator, the test plates were analyzed by staining with the tetrazolium dye XTT. XTT-tetrazolium is metabolized by the mitochondrial enzymes of metabolically active cells to a soluble formazan product, allowing the rapid quantitative analysis of the inhibition of HIV-induced cell killing by anti-HIV test substances. On day 6 post-infection plates were removed from the incubator and observed. The use of round bottom microtiter plates allows rapid macroscopic analysis of the activity of a given test compound by the evaluation of pellet size. The results of the macroscopic observations were confirmed and enhanced by further microscopic analysis.
XTT solution was prepared daily as a stock of 1 mg/ml in PBS. Phenazine methosulfate (PMS) solution was prepared at 15 mg/ml in PBS and stored in the dark at −20° C. XTT/PMS stock was prepared immediately before use by diluting the PMS 1:100 into PBS and adding 40 μl per ml of XTT solution. Fifty microliters of XTT/PMS was added to each well of the plate and the plate was incubated for an additional 4 hours at 37° C. Adhesive plate sealers were used in place of the lids, the sealed plate was inverted several times to mix the soluble formazan product and the plate was read spectrophotometrically at A450 nm with a Molecular Devices Vmax plate reader.

[3] = tested on: HIV-1 (IIIB, RF and SK1); assay: XTT-based anti-HIV assay, laboratory strains of HIV-1; type: cell-based
Description: as §1
as §2, with “Cells were added to the drug-containing plates in a volume of 50 μl.” left out
as §3, with “In general the virus pools produced with the IIIB isolate of HIV required the addition of 5 μl of virus per well.” left out
After 6 days of incubation at 37° C. in a 5% CO2 incubator, the test plates were analyzed by staining with the tetrazolium dye XTT. XTT-tetrazolium is metabolized by the mitochondrial enzymes of metabolically active cells to a soluble formazan product, allowing the rapid quantitative analysis of the inhibition of HIV-induced cell killing by anti-HIV test substances. […]
XTT solution was prepared daily as a stock of 1 mg/ml in PBS. […] Adhesive plate sealers were used in place of the lids, the sealed plate was inverted several times to mix the soluble formazan product and the plate was read spectrophotometrically at A450 nm with a Molecular Devices Vmax plate reader.

[4] = tested on: monocyte-macrophage-tropic strains BaL and ADA; assay: Anti-HIV assay in fresh human monocyte-macrophages; type: cell-based, HIV-1
Protocol: In addition to these T-tropic strains, the activity of the compounds was also evaluated against the monocyte-macrophage strains BaL and ADA. Oligos 12 and 32 according to the invention, as well as Oligo 41 are active against low passage clinical T-tropic strains of HIV-1. The activity of the compounds varies from strain to strain. The compounds were not active against the monocyte-macrophage-tropic strains BaL and ADA.
For isolation of adherent cells, 3×10^6 non-PHA stimulated peripheral blood cells were resuspended in Hanks buffered saline (with calcium and magnesium) supplemented with 10% human AB serum. The cells were placed in a 24-well microtiter plate at 37° C. for 2 hours. Non-adherent cells were removed by vigorously washing six times. The adherent cells were cultured for 7 days in RPMI 1640 tissue culture medium with 15% fetal bovine serum. The cultures were carefully monitored for confluency during this incubation period. Infection of the cells was performed with the monocytotropic HIV-1 strains BaL or ADA and the matched pair of AZT-sensitive and AZT-resistant virus isolates. Each of these virus isolates was obtained from the NIAID AIDS Research and Reference Reagent Program. High titer pools of each of these viruses have been harvested from infected cultures of peripheral blood adherent cells and frozen in 1.0 ml aliquots at −80° C. Monocyte-macrophage monolayers were infected at an MOI of 0.1. Compounds to be evaluated in the monocyte-macrophage assay are added to the monolayers shortly before infection in order to maximize the potential for identifying active compounds.
At 2 days post-infection, the medium was decanted and the cultures washed twice with complete medium in order to remove excess virus. […] Control curves are generated in each assay to accurately quantify the amount of capsid protein in each sample. Data was obtained by spectrophotometric analysis at 450 nm using a plate reader (Molecular Devices Vmax). P24 concentrations were calculated from the optical density values by use of the Molecular Device software package Soft Max.

[5] = tested on: low passage, clinical strains of HIV-1; assay: Anti-HIV activity in fresh human peripheral blood mononuclear cells; type: cell-based; settings: fresh human PBMC; varies from strain to strain
Protocol: In another experiment, the anti-HIV activity of Oligos 12, 32, and 41 was evaluated against a variety of low passage, clinical strains of HIV-1 in fresh human peripheral blood mononuclear cells. These strains include viruses obtained from pediatric patients attending the Children's Hospital University of Alabama at Birmingham as well as viruses representative of the various HIV-1 clades found throughout the world, shown below in TABLE 4.
Fresh human peripheral blood lymphocytes (PBL) were isolated from voluntary Red Cross donors, seronegative for HIV and HBV. Leukophoresed blood was diluted 1:1 with Dulbecco's phosphate buffered saline (PBS), layered over 14 ml of Ficoll-Hypaque density gradient in a 50 ml centrifuge tube. Tubes were then centrifuged for 30 minutes at 600×g. Banded PBLs were gently aspirated from the resulting interface and subsequently washed 2× with PBS by low speed centrifugation. After final wash, cells were enumerated by trypan blue exclusion and re-suspended at 1×10^7/ml in RPMI 1640 with 15% Fetal Bovine Serum (FBS), 2 mM L-glutamine, […] PHA-P and allowed to incubate for 48–72 hours at 37° C. After incubation, PBLs were centrifuged and reset in RPMI 1640 with 15% FBS, 2 mM L-glutamine, 100 U/ml penicillin, 100 μg/ml streptomycin, 10 μg/ml gentamycin, and 20 U/ml recombinant human IL-2. PBLs were maintained in this medium at a concentration of 1–2×10^6/ml with bi-weekly medium changes, until use in assay protocol. […]
In the standard PBL assay (MOI: 0.2), the assay was ended on day 7 following collection of cell free supernatant samples for reverse transcriptase activity assay. In the low MOI PBL assay (MOI: 0.02), supernatant samples were collected on day 6, day 11, and day 14 post-infection and analyzed for RT activity. […] Opti-Fluor O was added to each sample and incorporated radioactivity was quantified utilizing a liquid scintillation counter, (Wallac 1450 Microbetaplus, Gaithersburg, Md.).

[6] = In vivo bioavailability after a single dose, monkeys; settings: intravenous and oral
[7] = In vivo bioavailability after a single dose, rats; settings: intravenous and oral

Row | Substance | inhibition of HIV-1 infection ([1]; MT-4 cells treated during initial infection (FIG. 1)) | inhibition of HIV-1 infection ([1]; MT-4 cells treated following initial infection, post-viral adsorption (FIG. 2)) | inhibition of HIV-2-induced cell killing ([2]; XTT assay (FIG. 3)) | activity against HIV-1 [3] | activity against monocyte-macrophage-tropic strains BaL and ADA [4] | activity against low passage clinical T-tropic strains of HIV-1 [5] | level of activity against the HIV-2 strain ROD ([2]; compared with the HIV-1 strains, XTT assay) | activity against HIV-2 ([2]; strain ROD, XTT assay) | bioavailability [6] | bioavailability [7]
1 | 4×4: 21mer phosphorothioate linked oligonucleotide, deoxyribonucleotides flanked on each side by four 2′-O-methyl ribonucleotides; SEQ ID NO:1 (UCGCACCCATCTCTCTCCUUC; sugars from the 5' end m4 d13 m4, all phosphorothioate, methylation of C not given here) | inhibition of HIV-1 infection | inhibition of HIV-1 infection | inhibit HIV-2-induced cell killing | – | – | – | – | – | – | –
2 | UCGCACCCATCTCTCTCCUUC (chemistry not given here) [Oligo 12] | – | – | – | active | not active | active | enhanced level of activity | active | intravenously and orally bioavailable | intravenously and orally bioavailable

Reference: US7173014B2, “HIV-specific synthetic oligonucleotides and methods of their use” (priority 1997, dated 2007)
